One molecule from publication PMC5943319, “Cloning and characterization of a pyrethroid pesticide decomposing esterase gene, Est3385, from Rhodopseudomonas palustris PSB-S” (Scientific Reports, 2018) can be followed below.

The test concerns Est3385. The test is described as follows: GC quantification of residual substrate, Michaelis-Menten. In kind it is biochemical, Rhodopseudomonas palustris. As to conditions: GST fusion; substrate 10-50 µg/ml (below the Km); pH and temperature of kinetics not stated.

For `CC1(C)C(C(=O)OC(C#N)c2cccc(Oc3ccccc3)c2)C1(C)C` (stereo not shown) [fenpropathrin], the Michaelis-Menten constant (Km) (commonly the substrate concentration at which the rate is half of its maximum) amounted to 734 ± 13 µM.
